Experimental data reported in US10322999B2, “Oxindoles derivatives, preparation method thereof and pharmaceutical compositions for the prevention or treatment of cancer containing the same as an active ingredient” (RESEARCH & BUSINESS FOUNDATION SUNGKYUNKWAN UNIVERSITY, priority 2017, dated 2019).

The compounds below were run on human prostate adenocarcinoma cell line (LNCaP) (assay: MTT assay, growth inhibition of LNCaP cells). Settings: Homo sapiens; MTT, 48 hours incubation, LNCaP; read-out: LNCaP (IC50).
Format: cell-based
Description: (§1) To evaluate the anticancer activity of the oxindole derivatives produced and analyzed in examples 1 to 8, MTT assay was performed to confirm the growth inhibitory effect on cancer cells. More specifically, human prostate adenocarcinoma cell line (LNCaP), human breast cancer cell line (MCF-7), human ovarian cancer cell line (SKOV3), human lung cancer cell line […] and human renal adenocarcinoma cell line (786-O) were cultured in DMEM medium supplemented with 1% penicillin/streptomycin and 10% fetal bovine serum (All from Life Technologies, Grand Island, N.Y.). Cells were seeded in 96-well plates (3×10^3 cells/well) containing 100 μL of growth medium for 24 hours. After the medium was removed, 100 μL of each of the different analogues (dissolved in DMSO to 0.025% or less) was added to each well and cultured at 37° C. for 48 hours. After 48 hours of incubation, 100 μL of MTT reagent was added to each well. After incubation at 37° C. for 4 hours, the supernatant was aspirated, and the formazan crystals were dissolved in 100 μL of DMSO at 37° C. for 10 minutes with gentle stirring. Absorbance per well was measured at 540 nm using a VERSA max microplate reader (Molecular Devices Corp.). IC50 values were defined as compound concentrations that inhibited cell proliferation by 50% compared to cells treated with the highest amount of DMSO (0.025%) and were considered to be 100% viability.

Row | SMILES | IC50
1 | CCc1ccccc1NN1C(=O)C(CC(=O)NCc2ccccc2)c2cccc(CC)c21 (stereo not drawn) [4c, N-Benzyl-2-(7-ethyl-1-((2-ethylphenyl)amino)-2-oxoindolin-3-yl)acetamide] | 12.2 µM
2 | CCc1ccccc1NN1C(=O)C(CC(=O)Nc2ccccc2)c2cccc(CC)c21 (stereo not drawn) [4g, 2-(7-Ethyl-1-((2-ethylphenyl)amino)-2-oxoindolin-3-yl)-N-phenylacetamide] | 6 µM
3 | CCCCOC(=O)CC1C(=O)N(Nc2ccccc2CC)c2c(CC)cccc21 (stereo not drawn) [6b, Butyl 2-(7-ethyl-1-((2-ethylphenyl)amino)-2-oxoindolin-3-yl)acetate] | 13.9 µM
4 | CCc1ccccc1NN1C(=O)C(CC(=O)OCC(C)C)c2cccc(CC)c21 (stereo not drawn) [6d, Isobutyl 2-(7-ethyl-1-((2-ethylphenyl)amino)-2-oxoindolin-3-yl)acetate] | 12.5 µM
5 | CCCCOC(=O)c1[nH]c2cc(CC)ccc2c1C(=O)OCCCC [7a, Dibutyl 6-ethyl-1H-indole-2,3-dicarboxylate] | 14.5 µM

The compounds below were run on human breast cancer cell line (MCF-7) (assay: MTT assay, growth inhibition of MCF-7 cells). Settings: MCF7, MTT, 48 hours incubation, MCF-7, read-out: MCF-7 (IC50).
Format: cell-based
Description: as §1

Row | SMILES | IC50
6 | CCc1ccccc1NN1C(=O)C(CC(=O)NCc2ccccc2)c2cccc(CC)c21 (stereo not drawn) [4c, N-Benzyl-2-(7-ethyl-1-((2-ethylphenyl)amino)-2-oxoindolin-3-yl)acetamide] | 16.6 µM
7 | CCc1ccccc1NN1C(=O)C(CC(=O)Nc2ccccc2)c2cccc(CC)c21 (stereo not drawn) [4g, 2-(7-Ethyl-1-((2-ethylphenyl)amino)-2-oxoindolin-3-yl)-N-phenylacetamide] | 9.6 µM
8 | CCCCOC(=O)CC1C(=O)N(Nc2ccccc2CC)c2c(CC)cccc21 (stereo not drawn) [6b, Butyl 2-(7-ethyl-1-((2-ethylphenyl)amino)-2-oxoindolin-3-yl)acetate] | 14.7 µM
9 | CCc1ccccc1NN1C(=O)C(CC(=O)OCC(C)C)c2cccc(CC)c21 (stereo not drawn) [6d, Isobutyl 2-(7-ethyl-1-((2-ethylphenyl)amino)-2-oxoindolin-3-yl)acetate] | 14.2 µM
10 | CCCCOC(=O)c1[nH]c2cc(CC)ccc2c1C(=O)OCCCC [7a, Dibutyl 6-ethyl-1H-indole-2,3-dicarboxylate] | 20.6 µM

These compounds were tested on human ovarian cancer cell line (SKOV3) (assay: MTT assay, growth inhibition of SKOV3 cells). Settings: SK-OV-3, MTT, 48 hours incubation, SKOV3, read-out: SKOV3 (IC50).
Format: cell-based
Description: as §1

Row | SMILES | IC50
11 | CCc1ccccc1NN1C(=O)C(CC(=O)NCc2ccccc2)c2cccc(CC)c21 (stereo not drawn) [4c, N-Benzyl-2-(7-ethyl-1-((2-ethylphenyl)amino)-2-oxoindolin-3-yl)acetamide] | 20.3 µM
12 | CCc1ccccc1NN1C(=O)C(CC(=O)Nc2ccccc2)c2cccc(CC)c21 (stereo not drawn) [4g, 2-(7-Ethyl-1-((2-ethylphenyl)amino)-2-oxoindolin-3-yl)-N-phenylacetamide] | 13.8 µM
13 | CCCCOC(=O)CC1C(=O)N(Nc2ccccc2CC)c2c(CC)cccc21 (stereo not drawn) [6b, Butyl 2-(7-ethyl-1-((2-ethylphenyl)amino)-2-oxoindolin-3-yl)acetate] | 15.1 µM
14 | CCc1ccccc1NN1C(=O)C(CC(=O)OCC(C)C)c2cccc(CC)c21 (stereo not drawn) [6d, Isobutyl 2-(7-ethyl-1-((2-ethylphenyl)amino)-2-oxoindolin-3-yl)acetate] | 14.5 µM
15 | CCCCOC(=O)c1[nH]c2cc(CC)ccc2c1C(=O)OCCCC [7a, Dibutyl 6-ethyl-1H-indole-2,3-dicarboxylate] | 22.1 µM

What follows are compounds tested on human lung cancer cell line (A459) (assay: MTT assay, growth inhibition of A549 cells). Settings: Homo sapiens; MTT, 48 hours incubation, A549; read-out: A549 (IC50).
Format: cell-based
Description: as §1

Row | SMILES | IC50
16 | CCc1ccccc1NN1C(=O)C(CC(=O)NCc2ccccc2)c2cccc(CC)c21 (stereo not drawn) [4c, N-Benzyl-2-(7-ethyl-1-((2-ethylphenyl)amino)-2-oxoindolin-3-yl)acetamide] | 28.9 µM
17 | CCc1ccccc1NN1C(=O)C(CC(=O)Nc2ccccc2)c2cccc(CC)c21 (stereo not drawn) [4g, 2-(7-Ethyl-1-((2-ethylphenyl)amino)-2-oxoindolin-3-yl)-N-phenylacetamide] | 16.8 µM
18 | CCCCOC(=O)CC1C(=O)N(Nc2ccccc2CC)c2c(CC)cccc21 (stereo not drawn) [6b, Butyl 2-(7-ethyl-1-((2-ethylphenyl)amino)-2-oxoindolin-3-yl)acetate] | 17.6 µM
19 | CCc1ccccc1NN1C(=O)C(CC(=O)OCC(C)C)c2cccc(CC)c21 (stereo not drawn) [6d, Isobutyl 2-(7-ethyl-1-((2-ethylphenyl)amino)-2-oxoindolin-3-yl)acetate] | 22.5 µM
20 | CCCCOC(=O)c1[nH]c2cc(CC)ccc2c1C(=O)OCCCC [7a, Dibutyl 6-ethyl-1H-indole-2,3-dicarboxylate] | 24.4 µM

What follows are compounds tested on human renal adenocarcinoma cell line (786-O) (assay: MTT assay, growth inhibition of 786-O cells). Settings: Homo sapiens, 786-0; MTT, 48 hours incubation, 786-O; read-out: 786-O (IC50).
Format: cell-based
Description: as §1

Row | SMILES | IC50
21 | CCc1ccccc1NN1C(=O)C(CC(=O)NCc2ccccc2)c2cccc(CC)c21 (stereo not drawn) [4c, N-Benzyl-2-(7-ethyl-1-((2-ethylphenyl)amino)-2-oxoindolin-3-yl)acetamide] | 10.5 µM
22 | CCc1ccccc1NN1C(=O)C(CC(=O)Nc2ccccc2)c2cccc(CC)c21 (stereo not drawn) [4g, 2-(7-Ethyl-1-((2-ethylphenyl)amino)-2-oxoindolin-3-yl)-N-phenylacetamide] | 4.8 µM
23 | CCCCOC(=O)CC1C(=O)N(Nc2ccccc2CC)c2c(CC)cccc21 (stereo not drawn) [6b, Butyl 2-(7-ethyl-1-((2-ethylphenyl)amino)-2-oxoindolin-3-yl)acetate] | 12.2 µM
24 | CCc1ccccc1NN1C(=O)C(CC(=O)OCC(C)C)c2cccc(CC)c21 (stereo not drawn) [6d, Isobutyl 2-(7-ethyl-1-((2-ethylphenyl)amino)-2-oxoindolin-3-yl)acetate] | 12.6 µM
25 | CCCCOC(=O)c1[nH]c2cc(CC)ccc2c1C(=O)OCCCC [7a, Dibutyl 6-ethyl-1H-indole-2,3-dicarboxylate] | 13.2 µM

The compounds below were run on all carcinomas (assay: MTT assay, summary over all five cancer cell lines). Settings: summary of Table 3, all five cell lines.
Format: cell-based, human
Description: as §1

Row | SMILES | inhibitory activity against all carcinomas (in words)
26 | CCc1ccccc1NN1C(=O)C(CC(=O)NCc2ccccc2)c2cccc(CC)c21 (stereo not drawn) [4c, N-Benzyl-2-(7-ethyl-1-((2-ethylphenyl)amino)-2-oxoindolin-3-yl)acetamide] | excellent
27 | CCc1ccccc1NN1C(=O)C(CC(=O)Nc2ccccc2)c2cccc(CC)c21 (stereo not drawn) [4g, 2-(7-Ethyl-1-((2-ethylphenyl)amino)-2-oxoindolin-3-yl)-N-phenylacetamide] | excellent
28 | CCCCOC(=O)CC1C(=O)N(Nc2ccccc2CC)c2c(CC)cccc21 (stereo not drawn) [6b, Butyl 2-(7-ethyl-1-((2-ethylphenyl)amino)-2-oxoindolin-3-yl)acetate] | excellent
29 | CCc1ccccc1NN1C(=O)C(CC(=O)OCC(C)C)c2cccc(CC)c21 (stereo not drawn) [6d, Isobutyl 2-(7-ethyl-1-((2-ethylphenyl)amino)-2-oxoindolin-3-yl)acetate] | excellent
30 | CCCCOC(=O)c1[nH]c2cc(CC)ccc2c1C(=O)OCCCC [7a, Dibutyl 6-ethyl-1H-indole-2,3-dicarboxylate] | excellent
